What all share (assay): growth of human tumour cells (NCI), 48 h
The test system of test [1] is CAKI-1 renal.
For test [2], the system named is COLO 205 colon.
Test [3] relates to K-562 leukemia.
The subject of test [4] is NCI-H522 lung.
Test [5] concerns SF-268 CNS.
The subject of test [6] is SF-295 CNS.
The test system of test [7] is SF-539 CNS.
Test [8] concerns SK-MEL-2 melanoma.
Test [9] deals with SK-MEL-28 melanoma.
Test [10] deals with SK-MEL-5 melanoma.

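Protocol summary: plate cells (96-well), add compound at 5 concentrations, incubate 48 h, interpolate endpoints linearly. GI50 marks 50% less growth. TGI marks complete inhibition of growth.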

As for `COC(=O)C(Cc1ccccc1)NC(=O)NC(=O)NC(=O)CI` (stereo unspecified), the GI50 in test [1] was 2 µM; in [2], 1.83 µM; in test [3], 2.09 µM; in test [4], 1.61 µM; in test [5], 14.1 µM; in test [6], 16.4 µM. Besides, the GI50 in [7] is 11.8 µM; in test [8], 16.4 µM; in [9] it was 3.5 µM; in [10] it was 15.5 µM. The TGI came to 4.08 µM in test [1]; 3.56 µM in [2]; 5.08 µM in test [3]; 3.38 µM in test [4]; 30.4 µM in test [5]; 31.2 µM in test [6]. In addition, the TGI in test [7] was 24.9 µM; in test [8] it was 30.7 µM; in test [9], 13.8 µM; in test [10], 29 µM.
On to `COc1ccc(N=c2ssc3c(=S)ssc23)cc1`, for which the TGI was more than 100 µM in [1]; 22.5 µM in test [3]; 35.5 µM in test [4]; more than 100 µM in test [5]; more than 100 µM in test [6]; 96.2 µM in [7]. Further, the figures for the TGI in [8], in test [9] and in test [10] were more than 100 µM, 55.6 µM and 57.1 µM, respectively.
As to `CC(=O)NC1=C(OS(=O)(=O)c2ccc(C)cc2)CN(C)C1=O`, the TGI in [1] came out at 14 µM; in test [2], 25.3 µM; in [3], 28.3 µM; in test [4], 9.74 µM; in test [5], 45 µM; in test [6] it was 13.9 µM. Also, the TGI in test [7] was 5.84 µM; in test [8], 9.63 µM; in [9], more than 42.7 µM; in test [10] it was 18.4 µM.
Consider `COc1cccc(NC(=O)c2sc3nc4c(cc3c2N)CN(Cc2ccccc2)CC4)c1`, for which the GI50 was 11.7 µM in test [1]; 7.55 µM in test [2]; 0.53 µM in test [3]; 15.1 µM in test [4]; 3.66 µM in test [5]; 3.05 µM in test [6]. Further, the GI50 is 1.99 µM in test [7], 10.3 µM in test [8], 2.8 µM in test [9] and 2.15 µM in test [10]. The TGI in [1] was more than 100 µM; in test [2], 54.5 µM; in test [3] it was more than 100 µM; in test [4], more than 100 µM; in test [5] it was 20.7 µM; in test [6], 19.4 µM. Besides, the TGI was 6.56 µM in test [7], 44.5 µM in [8], 29.7 µM in [9] and 31.9 µM in [10].
Regarding `COC(=O)Cn1c2c(c3c(O)cccc31)C(=O)c1ccccc1-2`, the GI50 in [1], in [2], in test [3], in [4], in [5] and in test [6] was more than 100 µM in each case. Besides, the GI50 in [7], in test [8], in test [9] and in [10] was more than 100 µM in each case. For the same molecule, the TGI in [1], in test [2], in test [3], in test [4], in test [5] and in test [6] was more than 100 µM each time. For the same molecule, the TGI in test [7], in [8], in test [9] and in test [10] was more than 100 µM in each case.
For `CCN1CCC(CCOC)(CN2c3ccccc3Sc3ccc(Cl)cc32)C1` (stereo unspecified), the GI50 in test [1] was 1.64 µM; in test [2] it was 1.71 µM; in test [4], 1.74 µM; in test [5], 2.73 µM; in [6], 1.73 µM; in [7], 1.76 µM. Further, the GI50 in test [8] was 2.54 µM; in [9] it was 1.97 µM; in test [10], 1.69 µM. For the same molecule, the TGI in test [1] turned out to be 3.11 µM; in test [2] it was 3.29 µM; in test [4], 3.59 µM; in [5], 8.67 µM; in test [6] it was 3.39 µM; in test [7] it was 3.51 µM. Also, the TGI in test [8] amounted to 4.74 µM; in test [9] it was 3.62 µM; in [10], 3.07 µM.
As to `Cn1cnc2nc(Cl)nc(NC(C)(C)C(C)(C)O)c21`, the TGI in [1], in [2], in test [3], in [4], in test [5] and in test [6] was more than 100 µM in each case. Further, the TGI in test [7], in test [8] and in test [10] was more than 100 µM in each case.
On to `C=CC(=O)N1CCN(c2ccc3cccc(NC(=O)c4cnc(C)cn4)c3n2)CC1`, for which the GI50 is 0.555 µM in [1]; 6.26 µM in test [2]; 3.6 µM in test [3]; 1.99 µM in test [4]; 3.67 µM in test [5]; 13.5 µM in test [6]. The GI50 was 3.16 µM in [7], 3.37 µM in [8], 7.88 µM in [9] and 4.42 µM in [10]. The TGI in [1] was 11.5 µM; in test [2], 30 µM; in test [3], more than 100 µM; in test [4], 17.8 µM; in test [5], 49.2 µM; in test [6] it was more than 100 µM. The TGI stood at 15.3 µM in test [7], 27.8 µM in test [8], 20.5 µM in [9] and 16.9 µM in test [10].
`C=CCc1cc(OC)c2c(c1)C(O)CC(c1ccccc1)O2` (stereo unspecified): the TGI in [1], in test [2], in test [3], in [4], in test [5] and in test [6] was more than 100 µM each time. The TGI in test [7], in [8], in test [9] and in test [10] was more than 100 µM throughout.
